Assay results: patent US12686875B2, “Small molecules for increasing precise genome editing efficiency” (Max-Planck-Gesellschaft zur Förderung der Wissenschaften …, priority 2018, dated 2026)

What was measured:
human LIG4 = human LIG4 (Homo sapiens, UniProt P49917); details: Greco et al. 2016; cited from earlier work
HEK293A cells = details: cited from earlier work
rabbit embryos = details: cited from earlier work
[1] = test system: precise genome editing (PGE); details: SCR7 and L755507 added together with RS-1; cited from earlier work
mouse embryos = details: cited from earlier work
human stem cells = details: cited from earlier work
[2] = test system: K562 cells expressing wild-type DNA-PKcs; experiment: Genome editing of FRMD7 with Cas9 in K562 cells, amplicon sequencing (HDR / precise genome editing efficiency); assay type: cell-based, human; details: for HDR-increasing effect / precise genome editing efficiency, comparison of DNA-PKcs inhibitors: K562 cells, Cas9 induced DSB, 2 μM and 20 μM
Protocol: Cells were grown at 37° C. in a humidified incubator gassed with 5% CO2.
The recombinant A.s. Cpf1 and S.p. Cas9 protein and electroporation enhancer was ordered from IDT (Coralville, USA) and nucleofection was done using the manufacturer's protocol, except for the following alterations. […] Cells were counted using the Countess Automated Cell Counter (Invitrogen).
Incubation at 65° C. for 10 min, 68° C. for 5 min and finally 98° C. for 5 min was performed to yield ssDNA as a PCR template. […] PCR was done in a T100 Thermal Cycler (Bio-Rad) using the KAPA2G Robust PCR Kit (Peqlab, 07-KK5532-03) with supplied buffer B and 3 μl of cell extract in a total volume of 25 μl. The thermal cycling profile of the PCR was: 95° C.

409B2 hiPSCs = experiment: Genome editing of FRMD7 with Cas9 protein in 409B2 hiPSCs; assay type: cell-based, human; details: 2 μM, Cas9 induced DSB
Text: FIG. 5: Comparison of the effect of DNA-PK inhibitors on genome editing efficiency. Editing efficiencies of FRMD7 with Cas9 protein and treatment with different concentrations of M3814, NU7026, and NU7441 are shown for K562 cells (A) and 409B2 hiPSCs (B). HDR, mix (HDR with indels), NHEJ, and MMEJ are indicated in green, light green, light blue and light purple, respectively. Error bars show the SEM of three replicates. A skull indicates excessive cell death of up to around 80% determined by phase contrast light microscopy.
(§1) We recently created an iCRISPR-Cas9n line from human induced pluripotent stem cells (hiPSCs) (409-B2, Riken BioResource Center) and human embryonic stem cells (hESCs) (H9) as described by Gonzalez et al. Stem cells were grown on Matrigel Matrix (Corning, 35248) in mTeSR1 medium (StemCell Technologies, 05851) with supplement (StemCell Technologies, 05852) that was replaced daily. K562 cells (ECACC, 89121407) were grown with IMDM (ThermoFisher, 12440053) supplemented with 10% FBS. Cells were grown at 37° C. in a humidified incubator gassed with 5% CO2. Media was replaced every second day for non-pluripotent cell lines. Cell cultures were maintained 4-6 days until ~80% confluency, and subcultured at a 1:6 to 1:10 dilution. Adherent cells were dissociated using EDTA (VWR, 437012C). The media was supplemented with 10 μM Rho-associated protein kinase (ROCK) inhibitor Y-27632 (Calbiochem, 688000) after cell splitting for one day in order to increase cell survival.
The recombinant A.s. Cpf1 and S.p. Cas9 protein and electroporation enhancer was ordered from IDT (Coralville, USA) and nucleofection was done using the manufacturer's protocol, except for the following alterations. […] Cells were counted using the Countess Automated Cell Counter (Invitrogen). […]

[3] = test system: wild-type cell line, NFASC target; experiment: Genome editing of NFASC target with transient NHEJ/MMEJ/SSA inhibition in a wild-type cell line; assay type: cell-based; details: combination of 2 μM M3814, 320 pmol PoIQ siRNA aa765, PoIQ coding strand nicking, 5 μM 6-OH-dopa, 50 μM AICAR
Text: FIG. 7: Inhibition of RAD52 dependent single strand annealing (SSA) together with MMEJ inhibition is needed to further increase HDR for rare targets with long stretches of homology. The NFASC target has an 11 bp stretch of homology. The first three bars show editing efficiencies in a wild-type cell line, a DNA-PKcs KR cell line leading to NHEJ inhibition, and a DNA-PKcs KR+PoIQ Knockout cell line leading to NHEJ and MMEJ inhibition. […] HDR, mix (HDR with indels), NHEJ, and estimated MMEJ/SSA (at least 2 bp microhomology) are indicated in green, light green, light blue, and light purple, respectively. Error bars show the SEM of at least two replicates and one experiment for the last bar.
In some cases the target for genome editing has long homology stretches around the cleavage site. […] We speculated that indel formation was carried out by the RAD52 dependent single strand annealing pathway (SSA) which uses long stretched of homology.

K562 cells = experiment: Resazurin assay for cell survival three days after editing; assay type: cell-based, human
Text: FIG. 2: Cell survival of human immortalized myelogenous leukemia cells K562 cells after treatment with the small molecule M3814. Results of a resazurin assay for cell survival three days after editing are shown. Resazurin is converted into fluorescent resorfin by cellular dehydrogenases and resulting fluorescence (Excitation: 530-570 nm, Emission: 590-620 nm) is a marker for the amount of living cells. Resorfin fluorescence (610±30 nm) of cells without any treatment is set to 100% cell survival. Error bars show the SEM of three technical replicates for three technical replicates.
Cells were either seeded with or without editing reagents. The media was supplemented with or without M3814 and each condition was carried out in duplicate. After 72 h media was aspirated and 100 μl fresh media together with 10 μl resazurin solution (Cell Signaling, 11884) was added. Resazurin is converted into fluorescent resorfin by cellular dehydrogenases and resulting fluorescence (Excitation: 530-570 nm, Emission: 590-620 nm) is considered as a linear marker for cell viability (O'Brien et al. 2000). Cells were incubated with resazurin at 37° C. The redox reaction was measured every hour by fluorescence readings using a Typhoon 9410 imager (Amersham Biosciences). […] Duplicate wells with media and resazurin, but without cells, were used a blank.

H9 hESCs = experiment: Genome editing of LYPLA1 and SCAP by Cas9n double nicking in H9 hESCs-iCRISPR; assay type: cell-based, human; details: M3814 for three days
Text: Genome editing efficiencies of the LYPLA1 and SCAP gene in H9 hESCs-iCRISPR Cas9 nickase (Cas9n) double nicking and treatment with M3814 for three days and with DNA-PKcs K3753R cells are shown. HDR, mix (HDR with indels), NHEJ (non-homologous end joining), and MMEJ (microhomology-mediated end joining with at least two bp of microhomology) are indicated in green, light green, light blue, and light purple, respectively.
as §1, with “The media was supplemented with 10 μM Rho-associated protein kinase (ROCK) inhibitor Y-27632 (Calbiochem, 688000) after cell splitting for one day in order to increase cell survival.” left out
The recombinant A.s. […] Cells were counted using the Countess Automated Cell Counter (Invitrogen). […]

polymerase theta (PoIQ) = experiment: Genome editing efficiency with PoIQ (MMEJ) inhibition in cells with DNA-PKcs KR mutation; assay type: cell-based, human; details: cells with DNA-PKcs KR mutation (NHEJ inhibited)
Protocol: FIG. 6: Inhibition of polymerase theta (PoIQ) dependent microhomology mediated end-joining (MMEJ) can further increase HDR if the target of interest is prone to MMEJ repair. All cells have inhibited NHEJ due to the DNA-PKcs KR mutation, which can be transiently achieved by M3814 in wildtype cells as well. Shown are genome editing efficiencies. Cells were treated with different amounts of siRNA against PoIQ (Dharmacon ON-TARGET plus Human POLQ (10721) siRNA-SMART pool), single nicking of the first exon of PolQ, a combination of the SMART pool and coding strand nicking, and siRNA against PoIQ binding the mRNA at the sequence corresponding to amino acid 765 of PolQ. A cell line with both DNA-PKcs KR and PoIQ knockout mutation is shown for comparison. HDR, mix (HDR with indels), NHEJ, and estimated MMEJ (at least 2 bp microhomology) are indicated in green, light green, light blue, and light purple, respectively. Error bars show the SEM of at least two replicates.
For some targets HDR is increased but a substantial portion of genome editing events however still consists of indels. These are due to the microhomology mediated end-joining (MMEJ) pathway (also referred to as alternative NHEJ) which can compete with NHEJ and serves as a back-up pathway which relies on short stretches of microhomology at the cleavage site. […]

human LIG4, sequence (P49917 whole entry): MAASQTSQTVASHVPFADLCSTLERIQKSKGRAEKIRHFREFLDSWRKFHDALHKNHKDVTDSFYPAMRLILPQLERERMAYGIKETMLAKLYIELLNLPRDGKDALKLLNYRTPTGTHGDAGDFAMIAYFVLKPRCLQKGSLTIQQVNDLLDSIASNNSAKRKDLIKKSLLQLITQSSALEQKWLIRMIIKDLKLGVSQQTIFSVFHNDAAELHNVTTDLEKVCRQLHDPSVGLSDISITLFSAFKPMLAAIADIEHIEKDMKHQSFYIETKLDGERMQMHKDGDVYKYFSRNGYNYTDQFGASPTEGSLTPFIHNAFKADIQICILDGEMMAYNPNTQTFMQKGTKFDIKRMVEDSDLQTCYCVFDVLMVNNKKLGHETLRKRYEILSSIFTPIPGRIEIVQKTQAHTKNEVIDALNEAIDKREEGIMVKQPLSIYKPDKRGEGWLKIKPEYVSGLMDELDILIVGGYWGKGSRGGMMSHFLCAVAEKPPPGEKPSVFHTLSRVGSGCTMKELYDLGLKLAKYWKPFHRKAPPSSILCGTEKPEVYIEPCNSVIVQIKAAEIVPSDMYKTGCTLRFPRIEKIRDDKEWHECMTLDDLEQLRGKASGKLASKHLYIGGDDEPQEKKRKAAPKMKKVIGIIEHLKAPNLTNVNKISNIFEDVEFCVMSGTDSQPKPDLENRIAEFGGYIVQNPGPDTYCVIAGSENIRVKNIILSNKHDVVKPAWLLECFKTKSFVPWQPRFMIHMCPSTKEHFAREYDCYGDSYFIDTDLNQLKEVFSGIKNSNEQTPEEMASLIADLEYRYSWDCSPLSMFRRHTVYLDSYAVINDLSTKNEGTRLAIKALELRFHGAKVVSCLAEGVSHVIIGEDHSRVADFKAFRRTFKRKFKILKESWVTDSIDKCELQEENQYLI
human LIG4, sequence (Q13426 whole entry partner): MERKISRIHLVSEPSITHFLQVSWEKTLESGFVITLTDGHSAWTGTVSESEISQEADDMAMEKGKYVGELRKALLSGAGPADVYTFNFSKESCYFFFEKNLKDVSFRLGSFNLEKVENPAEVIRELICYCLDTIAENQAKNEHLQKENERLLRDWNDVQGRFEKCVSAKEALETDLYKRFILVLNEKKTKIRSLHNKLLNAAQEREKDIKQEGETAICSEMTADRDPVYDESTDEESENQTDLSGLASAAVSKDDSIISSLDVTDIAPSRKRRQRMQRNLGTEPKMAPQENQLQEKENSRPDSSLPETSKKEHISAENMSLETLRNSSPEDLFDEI

## O=c1[nH]c(=S)[nH]c(N=Cc2ccccc2)c1N=Cc1ccccc1 [SCR7]
Human LIG4
  inhibitory properties on human LIG4: neither selective nor potent inhibitors
HEK293A cells
  effect on PGE: marginal but significant increase
Rabbit embryos
  effect on PGE: no significant effect
[1]
  effect on PGE when added together with RS-1, compared to RS-1 alone: no additive effect
Mouse embryos; from 5% without SCR7 (Maruyama et al. 2015)
  efficiency of PGE: 22.7%
Mouse embryos; other researchers
  effect on PGE: no significant effect
Human stem cells
  effect on PGE: no significant effect

## O=c1cc(N2CCOCC2)oc2c1ccc1ccccc12 [NU7026]
[2]
  HDR-increasing effect / precise genome editing efficiency, comparison of DNA-PKcs inhibitors: significantly less precise genome editing efficiency
409B2 hiPSCs
  HDR efficiencies: much lower efficiencies

## NC(=O)c1ncn([C@@H]2O[C@H](COP(=O)(O)O)[C@@H](O)[C@H]2O)c1N [AICAR, AICA ribonucleotide 5′-monophosphate]
[3]
  HDR, combined NHEJ/MMEJ/SSA inhibition: drastic HDR increase

## O=c1cc(N2CCOCC2)oc2c(-c3cccc4c3sc3ccccc34)cccc12 [NU7441]
[2]
  HDR-increasing effect / precise genome editing efficiency, comparison of DNA-PKcs inhibitors: significantly less precise genome editing efficiency
409B2 hiPSCs
  HDR efficiencies: much lower efficiencies

## NC(Cc1cc(O)c(O)cc1O)C(=O)O (centres unmarked) [6-hydroxy-depa, 6-hydroxy-dopa]
[3]
  HDR, combined NHEJ/MMEJ/SSA inhibition: drastic HDR increase

## COc1ccc([C@@H](O)c2cc(-c3ncnc4cc(N5CCOCC5)ccc34)c(F)cc2Cl)nn1 [M3814, Nedisertib]
[3]
  HDR, combined NHEJ/MMEJ/SSA inhibition: drastic HDR increase
K562 cells
  toxicity (cell survival, resazurin assay): moderate toxicity
[2]; K562 cells expressing wild-type DNA-PKcs, FRMD7, Cas9, transient M3814 treatment (three days), 18% without M3814
  precise genome editing / HDR efficiency: 81%
[2]
  HDR-increasing effect / precise genome editing efficiency, comparison of DNA-PKcs inhibitors: stronger HDR-increasing effect than treatment with NU7026 and NU7441
H9 hESCs
  HDR efficiencies compared with DNA-PKcs K3753R mutation: comparable to what is achievable by total inactivation of the DNA-PKcs catalytic active site
409B2 hiPSCs
  HDR efficiencies: strongly increased HDR efficiencies

## siRNA aa765: siRNA binding PoIQ mRNA before the sequence corresponding to the first RAD51 binding domain (SEQ ID NO: 63) (TTGGAAAATACTGTAATCATCCCTGCA; listed as DNA, chemistry not given here)
Polymerase theta (PoIQ)
  HDR and indels with MMEJ signature, siRNA alone: high HDR
